# Results: US20030045563A1, “Pharmaceutical composition having reduced tendency for drug crystallization” (priority 2001, published 2003)
# Test: Test I: turbidity (apparent absorbance at 650 nm) of drug solutions with or without test polymer
# Details: pH 7 phosphate buffer
# [1] = drug 31.3 μg/ml, Dextran 65,000 0.5% w/w
# [2] = drug 31.3 μg/ml, Ethylcellulose A15 0.5% w/w
# [3] = drug 31.3 μg/ml, Glycerin (non-polymer) 0.5% w/w
# [4] = drug 31.3 μg/ml, HPC 80,000 0.5% w/w
# [5] = drug 31.3 μg/ml, HPMC E15 0.5% w/w
# [6] = drug 31.3 μg/ml, Na CMC 250,000 0.5% w/w
# [7] = drug 31.3 μg/ml, PEG 8,000 0.5% w/w
# [8] = drug 31.3 μg/ml, PEG 20,000 0.5% w/w
# [9] = drug 31.3 μg/ml, PVP 10,000 0.5% w/w
# [10] = drug 31.3 μg/ml, PVP 29,000 0.5% w/w
# [11] = drug 31.3 μg/ml, PVP 55,000 0.5% w/w
# [12] = drug 62.5 μg/ml, Dextran 65,000 0.5% w/w
# [13] = drug 62.5 μg/ml, Ethylcellulose A15 0.5% w/w
# [14] = drug 62.5 μg/ml, Glycerin (non-polymer) 0.5% w/w
# [15] = drug 62.5 μg/ml, HPC 80,000 0.5% w/w
# [16] = drug 62.5 μg/ml, HPMC E15 0.5% w/w
# [17] = drug 62.5 μg/ml, Na CMC 250,000 0.5% w/w
# [18] = drug 62.5 μg/ml, PEG 8,000 0.5% w/w
# [19] = drug 62.5 μg/ml, PEG 20,000 0.5% w/w
# [20] = drug 62.5 μg/ml, PVP 10,000 0.5% w/w
# [21] = drug 62.5 μg/ml, PVP 29,000 0.5% w/w
# [22] = drug 62.5 μg/ml, PVP 55,000 0.5% w/w
# [23] = drug 125 μg/ml, Dextran 65,000 0.5% w/w
# [24] = drug 125 μg/ml, Ethylcellulose A15 0.5% w/w
# [25] = drug 125 μg/ml, Glycerin (non-polymer) 0.5% w/w
# [26] = drug 125 μg/ml, HPC 80,000 0.5% w/w
# [27] = drug 125 μg/ml, HPMC E15 0.5% w/w
# [28] = drug 125 μg/ml, Na CMC 250,000 0.5% w/w
# [29] = drug 125 μg/ml, PEG 8,000 0.5% w/w
# [30] = drug 125 μg/ml, PEG 20,000 0.5% w/w
# [31] = drug 125 μg/ml, PVP 10,000 0.5% w/w
# [32] = drug 125 μg/ml, PVP 29,000 0.5% w/w
# [33] = drug 125 μg/ml, PVP 55,000 0.5% w/w
# [34] = drug 250 μg/ml, Dextran 65,000 0.5% w/w
# [35] = drug 250 μg/ml, Ethylcellulose A15 0.5% w/w
# [36] = drug 250 μg/ml, Glycerin (non-polymer) 0.5% w/w
# [37] = drug 250 μg/ml, HPC 80,000 0.5% w/w
# [38] = drug 250 μg/ml, HPMC E15 0.5% w/w
# [39] = drug 250 μg/ml, Na CMC 250,000 0.5% w/w
# [40] = drug 250 μg/ml, PEG 8,000 0.5% w/w
# [41] = drug 250 μg/ml, PEG 20,000 0.5% w/w
# [42] = drug 250 μg/ml, PVP 10,000 0.5% w/w
# [43] = drug 250 μg/ml, PVP 29,000 0.5% w/w
# [44] = drug 250 μg/ml, PVP 55,000 0.5% w/w
compound,measurement,setting,value
"Cc1ccc(-c2cc(C(F)(F)F)nn2-c2ccc(S(N)(=O)=O)cc2)cc1 [Celecoxib, 4-[5-(4-methylphenyl)-3-(trifluoromethyl)-1H-pyrazol-1-yl]benzenesulfonamide]",Absorbance,[1],0.033
same,Absorbance,[2],0.041
same,Absorbance,[3],0.038
same,Absorbance,[4],0.034
same,Absorbance,[5],0.037
same,Absorbance,[6],0.046
same,Absorbance,[7],0.031
same,Absorbance,[8],0.039
same,Absorbance,[9],0.035
same,Absorbance,[10],0.031
same,Absorbance,[11],0.04
same,Absorbance,"drug 31.3 μg/ml, polymer None",0.036
same,Absorbance,[12],0.076
same,Absorbance,[13],0.039
same,Absorbance,[14],0.07
same,Absorbance,[15],0.038
same,Absorbance,[16],0.039
same,Absorbance,[17],0.078
same,Absorbance,[18],0.169
same,Absorbance,[19],0.16
same,Absorbance,[20],0.041
same,Absorbance,[21],0.037
same,Absorbance,[22],0.049
same,Absorbance,"drug 62.5 μg/ml, polymer None",0.069
same,Absorbance,[23],0.266
same,Absorbance,[24],0.06
same,Absorbance,"drug 125 μg/ml, Ethylcellulose A15 0.5% w/w, listed as celecoxib",reduced turbidity
same,Absorbance,[25],0.184
same,Absorbance,[26],0.05
same,Absorbance,"drug 125 μg/ml, HPC 80,000 0.5% w/w, listed as celecoxib",reduced turbidity
same,Absorbance,[27],0.049
same,Absorbance,"drug 125 μg/ml, HPMC E15 0.5% w/w, listed as celecoxib",reduced turbidity
same,Absorbance,[28],0.083
same,Absorbance,"drug 125 μg/ml, Na CMC 250,000 0.5% w/w, listed as celecoxib",reduced turbidity
same,Absorbance,[29],0.308
same,Absorbance,[30],0.342
same,Absorbance,[31],0.072
same,Absorbance,"drug 125 μg/ml, PVP 10,000 0.5% w/w, listed as celecoxib",reduced turbidity
same,Absorbance,[32],0.064
same,Absorbance,"drug 125 μg/ml, PVP 29,000 0.5% w/w, listed as celecoxib",reduced turbidity
same,Absorbance,[33],0.048
same,Absorbance,"drug 125 μg/ml, PVP 55,000 0.5% w/w, listed as celecoxib",reduced turbidity
same,Absorbance,"drug 125 μg/ml, polymer None",0.146
same,Absorbance,[34],0.379
same,Absorbance,[35],0.085
same,Absorbance,"drug 250 μg/ml, Ethylcellulose A15 0.5% w/w, listed as celecoxib",reduced turbidity
same,Absorbance,[36],0.41
same,Absorbance,[37],0.11
same,Absorbance,"drug 250 μg/ml, HPC 80,000 0.5% w/w, listed as celecoxib",reduced turbidity
same,Absorbance,[38],0.093
same,Absorbance,"drug 250 μg/ml, HPMC E15 0.5% w/w, listed as celecoxib",reduced turbidity
same,Absorbance,[39],0.148
same,Absorbance,"drug 250 μg/ml, Na CMC 250,000 0.5% w/w, listed as celecoxib",reduced turbidity
same,Absorbance,[40],0.485
same,Absorbance,[41],0.654
same,Absorbance,[42],0.2
same,Absorbance,"drug 250 μg/ml, PVP 10,000 0.5% w/w, listed as celecoxib",reduced turbidity
same,Absorbance,[43],0.118
same,Absorbance,"drug 250 μg/ml, PVP 29,000 0.5% w/w, listed as celecoxib",reduced turbidity
same,Absorbance,[44],0.105
same,Absorbance,"drug 250 μg/ml, PVP 55,000 0.5% w/w, listed as celecoxib",reduced turbidity
same,Absorbance,"drug 250 μg/ml, polymer None",0.376
"Cc1onc(-c2ccccc2)c1-c1ccc(S(N)(=O)=O)cc1 [Valdecoxib, 4-[5-methyl-3-phenylisoxazol-4-yl]benzenesulfonamide]",Absorbance,[1],0.03
same,Absorbance,[2],0.033
same,Absorbance,[3],0.03
same,Absorbance,[4],0.031
same,Absorbance,[5],0.032
same,Absorbance,[6],0.03
same,Absorbance,[7],0.03
same,Absorbance,[8],0.031
same,Absorbance,[9],0.032
same,Absorbance,[10],0.03
same,Absorbance,[11],0.032
same,Absorbance,"drug 31.3 μg/ml, polymer None",0.031
same,Absorbance,[12],0.031
same,Absorbance,[13],0.033
same,Absorbance,[14],0.028
same,Absorbance,[15],0.032
same,Absorbance,[16],0.034
same,Absorbance,[17],0.036
same,Absorbance,[18],0.03
same,Absorbance,[19],0.031
same,Absorbance,[20],0.034
same,Absorbance,[21],0.03
same,Absorbance,[22],0.031
same,Absorbance,"drug 62.5 μg/ml, polymer None",0.029
same,Absorbance,[23],0.033
same,Absorbance,[24],0.033
same,Absorbance,[25],0.029
same,Absorbance,[26],0.046
same,Absorbance,[27],0.034
same,Absorbance,[28],0.09
same,Absorbance,[29],0.03
same,Absorbance,[30],0.031
same,Absorbance,[31],0.032
same,Absorbance,[32],0.032
same,Absorbance,[33],0.032
same,Absorbance,"drug 125 μg/ml, polymer None",0.029
same,Absorbance,[34],0.289
same,Absorbance,[35],0.052
same,Absorbance,"drug 250 μg/ml, Ethylcellulose A15 0.5% w/w, listed as valdecoxib",reduced turbidity
same,Absorbance,[36],0.229
same,Absorbance,[37],0.093
same,Absorbance,"drug 250 μg/ml, HPC 80,000 0.5% w/w, listed as valdecoxib",reduced turbidity
same,Absorbance,[38],0.064
same,Absorbance,"drug 250 μg/ml, HPMC E15 0.5% w/w, listed as valdecoxib",reduced turbidity
same,Absorbance,[39],0.174
same,Absorbance,"drug 250 μg/ml, Na CMC 250,000 0.5% w/w, listed as valdecoxib",reduced turbidity
same,Absorbance,[40],0.345
same,Absorbance,[41],0.433
same,Absorbance,[42],0.321
same,Absorbance,[43],0.183
same,Absorbance,"drug 250 μg/ml, PVP 29,000 0.5% w/w, listed as valdecoxib",reduced turbidity
same,Absorbance,[44],0.162
same,Absorbance,"drug 250 μg/ml, PVP 55,000 0.5% w/w, listed as valdecoxib",reduced turbidity
same,Absorbance,"drug 250 μg/ml, polymer None",0.185
